Activity calls are given as the source filed them.

Assay [1] is described as follows: microbe, parasite or virus in culture. It counts as functional. The settings on record: Mycobacterium tuberculosis.
A short description of assay [2]: HepG2 cell cytotoxicity, dose response, cytotoxicity control for Shn3 inhibitor project, CellTiter-Glo, cherry-picked (AID 624134). Type of assay: functional, cell-based.
Assay [3] is described as follows: THP-1 cell cytotoxicity, dose response, cytotoxicity control for non-replicating M. tuberculosis project (AID 489025). It counts as functional.
The target of assay [4] is T1, Replicative DNA helicase DnaB (Mycobacterium tuberculosis, UniProt P9WMR3).
T1 sequence (P9WMR3 whole entry): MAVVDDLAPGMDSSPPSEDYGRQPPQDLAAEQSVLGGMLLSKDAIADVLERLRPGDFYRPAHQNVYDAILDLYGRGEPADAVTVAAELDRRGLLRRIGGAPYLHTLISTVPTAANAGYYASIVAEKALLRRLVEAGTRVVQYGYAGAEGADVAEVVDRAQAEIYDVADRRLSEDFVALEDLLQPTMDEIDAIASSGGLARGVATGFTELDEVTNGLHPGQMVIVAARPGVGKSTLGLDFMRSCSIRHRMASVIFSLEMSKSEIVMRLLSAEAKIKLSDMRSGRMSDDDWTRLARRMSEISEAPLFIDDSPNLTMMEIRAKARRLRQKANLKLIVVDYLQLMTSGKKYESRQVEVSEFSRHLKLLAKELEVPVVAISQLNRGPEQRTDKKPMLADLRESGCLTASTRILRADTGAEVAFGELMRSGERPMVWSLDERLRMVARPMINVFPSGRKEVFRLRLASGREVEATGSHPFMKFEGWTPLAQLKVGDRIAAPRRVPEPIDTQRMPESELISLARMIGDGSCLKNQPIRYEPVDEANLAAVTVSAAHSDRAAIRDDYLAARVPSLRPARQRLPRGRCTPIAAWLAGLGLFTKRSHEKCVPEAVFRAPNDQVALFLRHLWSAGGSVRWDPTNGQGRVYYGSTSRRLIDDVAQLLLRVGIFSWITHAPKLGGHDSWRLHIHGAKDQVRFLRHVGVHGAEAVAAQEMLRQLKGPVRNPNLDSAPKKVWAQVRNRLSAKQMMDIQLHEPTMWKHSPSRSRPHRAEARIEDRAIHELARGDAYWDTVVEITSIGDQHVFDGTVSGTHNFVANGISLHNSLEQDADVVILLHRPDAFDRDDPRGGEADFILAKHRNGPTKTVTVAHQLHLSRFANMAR
Briefly: DnaB intein splicing inhibitors, dose response, biochemical, cell-free fluorescence (AID 449749). It counts as functional.

Assay [5] in a line: cells. Type of assay: functional.
Assay [6] is described as follows: Vero E6 cell cytotoxicity, dose response, cytotoxicity control for non-replicating M. tuberculosis project, secondary assay (AID 492998). It counts as functional, VeroE6. The settings on record: Vero C1008.
A short description of assay [7]: control 3'UTR Renilla luciferase suppression, dose response, counter-screen for Shn3 inhibitor project, cell-based, Clone20-Shn3RL, cherry-picked (AID 624133). Type of assay: functional.
A short description of assay [8]: Shn3 3'UTR reporter inhibitors, dose response, cell-based, Clone20 osteoblasts, firefly luciferase, cherry-picked (AID 624132).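 Note: firefly luciferase luminescence from reporter carrying the Shn3 3'UTR in osteoblasts.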 It counts as functional.
Assay [9] has as its target T2, Protein RecA (Mycobacterium tuberculosis, UniProt P9WHJ3).
T2 sequence (P9WHJ3 whole entry): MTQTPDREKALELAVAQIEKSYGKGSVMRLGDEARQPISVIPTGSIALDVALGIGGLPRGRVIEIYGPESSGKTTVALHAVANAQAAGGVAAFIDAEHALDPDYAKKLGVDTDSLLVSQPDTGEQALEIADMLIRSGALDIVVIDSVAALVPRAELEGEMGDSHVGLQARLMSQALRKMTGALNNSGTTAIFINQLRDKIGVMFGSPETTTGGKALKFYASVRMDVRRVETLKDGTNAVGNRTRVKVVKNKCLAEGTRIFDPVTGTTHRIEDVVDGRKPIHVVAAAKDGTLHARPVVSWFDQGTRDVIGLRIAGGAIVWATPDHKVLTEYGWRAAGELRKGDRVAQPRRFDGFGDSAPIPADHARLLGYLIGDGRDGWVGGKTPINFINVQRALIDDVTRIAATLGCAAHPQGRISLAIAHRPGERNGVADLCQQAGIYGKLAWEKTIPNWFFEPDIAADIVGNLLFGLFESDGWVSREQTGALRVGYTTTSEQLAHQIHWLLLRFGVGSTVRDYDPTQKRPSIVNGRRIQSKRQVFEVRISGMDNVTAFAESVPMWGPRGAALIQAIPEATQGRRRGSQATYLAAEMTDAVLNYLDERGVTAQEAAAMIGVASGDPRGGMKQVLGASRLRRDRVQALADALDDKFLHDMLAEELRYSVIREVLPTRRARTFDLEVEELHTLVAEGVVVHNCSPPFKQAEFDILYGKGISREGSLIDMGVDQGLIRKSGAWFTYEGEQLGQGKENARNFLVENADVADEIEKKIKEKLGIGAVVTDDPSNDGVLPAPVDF
Briefly: Fluorescence Cell-Free Homogeneous Dose Retest to Identify Inhibitors of RecA-Intein Splicing Activity. [Related pubchem assays (depositor defined):AID2097, AID2223, AID489010, AID492950]. It counts as functional.

For assay [10], the target named is T3, Coagulation factor XII (Homo sapiens, UniProt P00748).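 Note: activated factor XIIa alpha cleaving a fluorogenic AMC peptide substrate; inhibitor potency from loss of enzyme activity.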
T3 sequence (P00748 whole entry): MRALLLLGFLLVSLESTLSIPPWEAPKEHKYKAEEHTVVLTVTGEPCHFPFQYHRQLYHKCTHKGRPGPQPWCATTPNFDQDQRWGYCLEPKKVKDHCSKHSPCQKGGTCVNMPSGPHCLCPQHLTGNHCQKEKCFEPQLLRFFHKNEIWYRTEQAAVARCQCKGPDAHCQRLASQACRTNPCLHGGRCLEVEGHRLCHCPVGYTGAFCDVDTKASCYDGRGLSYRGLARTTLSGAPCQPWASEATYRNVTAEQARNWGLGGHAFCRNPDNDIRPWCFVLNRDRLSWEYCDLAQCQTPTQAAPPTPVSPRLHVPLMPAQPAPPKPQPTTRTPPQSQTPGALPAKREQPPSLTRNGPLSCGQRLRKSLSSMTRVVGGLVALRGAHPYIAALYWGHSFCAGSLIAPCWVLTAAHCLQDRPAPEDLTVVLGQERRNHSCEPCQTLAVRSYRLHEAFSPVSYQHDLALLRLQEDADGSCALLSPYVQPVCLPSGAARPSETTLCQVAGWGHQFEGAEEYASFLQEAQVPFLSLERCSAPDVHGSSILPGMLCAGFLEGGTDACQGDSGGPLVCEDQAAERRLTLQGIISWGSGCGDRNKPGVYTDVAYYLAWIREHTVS
Type of assay: functional.

Assay [11] deals with T4, CAAX prenyl protease 2 (Saccharomyces cerevisiae S288c, UniProt Q03530).
T4 sequence (Q03530 whole entry): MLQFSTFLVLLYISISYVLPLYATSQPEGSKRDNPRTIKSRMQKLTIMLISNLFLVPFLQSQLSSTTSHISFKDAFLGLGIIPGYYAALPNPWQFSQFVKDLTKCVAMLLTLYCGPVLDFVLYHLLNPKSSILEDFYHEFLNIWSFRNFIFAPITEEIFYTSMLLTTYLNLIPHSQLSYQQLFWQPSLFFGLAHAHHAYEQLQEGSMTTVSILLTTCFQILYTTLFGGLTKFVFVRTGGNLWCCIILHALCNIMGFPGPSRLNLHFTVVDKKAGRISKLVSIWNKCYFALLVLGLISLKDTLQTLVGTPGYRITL
Type of assay: biochemical.

The target of assay [12] is Eukaryotic translation initiation factor 4E (Mus musculus, UniProt P63073). Briefly: eIF4E–eIF4G protein interaction inhibitors, dose response, biochemical, TR-FRET (AID 855).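 Note: potency for disrupting eIF4E binding to eIF4GI seen as loss of FRET.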 Type of assay: functional.
For assay [13], the target named is SUMO-activating enzyme (Homo sapiens, UniProt Q9UBT2). Briefly: SUMOylation inhibitor hit validation, confirmation, SUMOylation inhibitor project, biochemical, AlphaScreen (AID 2018). It counts as functional.
Assay [14] is described as follows: inhibitors of intracellular T. cruzi replication, confirmation, NIH3T3 host cells, beta-gal luminescence (AID 2044).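 Note: intracellular parasites grown in NIH/3T3 mouse fibroblasts as host cells; luminescent beta-galactosidase reporter signal from transgenic T. cruzi replicating inside host cells; inhibitors lower the luminescence signal.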 Type of assay: functional, cell-based.
Assay [15] concerns the target DNA dC->dU-editing enzyme APOBEC-3G (Homo sapiens, UniProt Q9HC16). Briefly: Dose Response confirmation of small molecule APOBEC3G DNA Deaminase Inhibitors via a fluorescence-based single-stranded DNA deaminase assay. [Related pubchem assays (depositor defined):AID493012, AID493028]. It counts as functional.
Assay [16] deals with T5, Short transient receptor potential channel 4 (Mus musculus, UniProt Q9QUQ5).
T5 sequence (Q9QUQ5 whole entry): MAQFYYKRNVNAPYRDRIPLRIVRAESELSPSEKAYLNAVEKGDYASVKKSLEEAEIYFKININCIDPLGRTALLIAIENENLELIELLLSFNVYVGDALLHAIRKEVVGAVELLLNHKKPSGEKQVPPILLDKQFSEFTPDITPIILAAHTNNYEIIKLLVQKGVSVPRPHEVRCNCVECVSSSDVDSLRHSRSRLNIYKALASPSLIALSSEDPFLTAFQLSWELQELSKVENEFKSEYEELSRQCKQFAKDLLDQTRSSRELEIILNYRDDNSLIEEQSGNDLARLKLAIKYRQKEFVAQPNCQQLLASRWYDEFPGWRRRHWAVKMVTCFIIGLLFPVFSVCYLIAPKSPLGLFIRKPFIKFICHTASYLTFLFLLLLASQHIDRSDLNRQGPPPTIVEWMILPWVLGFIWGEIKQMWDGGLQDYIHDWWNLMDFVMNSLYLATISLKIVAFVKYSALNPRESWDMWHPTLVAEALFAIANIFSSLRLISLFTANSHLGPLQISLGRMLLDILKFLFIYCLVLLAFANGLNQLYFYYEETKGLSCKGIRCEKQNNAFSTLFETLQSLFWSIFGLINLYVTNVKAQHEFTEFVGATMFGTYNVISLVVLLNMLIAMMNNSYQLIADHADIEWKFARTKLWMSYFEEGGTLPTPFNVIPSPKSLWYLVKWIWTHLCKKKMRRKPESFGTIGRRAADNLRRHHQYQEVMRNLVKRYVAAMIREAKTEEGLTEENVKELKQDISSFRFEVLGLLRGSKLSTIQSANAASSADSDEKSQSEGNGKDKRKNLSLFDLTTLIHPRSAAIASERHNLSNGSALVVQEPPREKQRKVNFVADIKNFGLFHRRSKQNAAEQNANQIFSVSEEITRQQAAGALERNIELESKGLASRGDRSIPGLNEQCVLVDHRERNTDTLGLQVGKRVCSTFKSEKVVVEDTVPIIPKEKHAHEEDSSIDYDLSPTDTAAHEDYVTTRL
Nature of the assay: mouse TRPC4 channel inhibitors, dose response, cell-based, HEK293 TRPC4/mu-opioid, Fluo-4 calcium (AID 434942).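 Note: potency of inhibitors blocking the TRPC4 calcium response.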 Type of assay: functional.

Assay [17] concerns the target T6, Kappa-type opioid receptor (Homo sapiens, UniProt P41145). Type of assay: functional.
Assay [18] concerns the target T6, Kappa-type opioid receptor. It counts as functional. The source holds these as a separate data set.
Assay [19] is described as follows: cytotoxicity toward NIH3T3 fibroblasts, dose response, counter-screen, cell-based, ATP luminescence, mouse fibroblasts (AID 2010).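 Note: cells exposed to compound for about 90 hours before reading.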 Type of assay: functional.
In assay [20] the target is Beta-galactosidase (Escherichia coli, UniProt Q8VNN2). Type of assay: functional.
Sequence of Beta-galactosidase (Q8VNN2 whole entry): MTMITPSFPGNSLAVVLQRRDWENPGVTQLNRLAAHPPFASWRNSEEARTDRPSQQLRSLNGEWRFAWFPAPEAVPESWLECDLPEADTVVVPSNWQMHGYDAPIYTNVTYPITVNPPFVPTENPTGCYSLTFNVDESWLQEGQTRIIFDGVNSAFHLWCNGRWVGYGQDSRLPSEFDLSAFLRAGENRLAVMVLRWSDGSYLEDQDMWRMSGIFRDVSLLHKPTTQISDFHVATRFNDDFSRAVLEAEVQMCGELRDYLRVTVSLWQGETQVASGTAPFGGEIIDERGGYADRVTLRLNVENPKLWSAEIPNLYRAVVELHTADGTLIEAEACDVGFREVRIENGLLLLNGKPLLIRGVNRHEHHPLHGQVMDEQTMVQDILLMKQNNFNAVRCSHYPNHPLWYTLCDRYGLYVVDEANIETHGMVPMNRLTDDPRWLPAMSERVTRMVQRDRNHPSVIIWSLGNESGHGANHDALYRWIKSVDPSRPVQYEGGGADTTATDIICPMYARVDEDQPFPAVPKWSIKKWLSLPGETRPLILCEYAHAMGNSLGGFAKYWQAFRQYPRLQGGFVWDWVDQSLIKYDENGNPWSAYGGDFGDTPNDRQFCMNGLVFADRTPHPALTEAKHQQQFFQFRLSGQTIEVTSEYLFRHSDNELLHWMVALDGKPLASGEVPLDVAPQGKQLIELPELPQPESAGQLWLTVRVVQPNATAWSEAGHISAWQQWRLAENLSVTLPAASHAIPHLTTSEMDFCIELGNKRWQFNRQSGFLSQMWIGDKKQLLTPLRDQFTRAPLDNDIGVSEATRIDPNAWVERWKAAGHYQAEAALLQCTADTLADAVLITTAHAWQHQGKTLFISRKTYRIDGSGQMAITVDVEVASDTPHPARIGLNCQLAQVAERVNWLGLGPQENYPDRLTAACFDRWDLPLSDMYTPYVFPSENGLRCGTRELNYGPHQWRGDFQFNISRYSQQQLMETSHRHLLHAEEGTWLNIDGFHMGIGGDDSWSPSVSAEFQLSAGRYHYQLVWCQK

T6 sequence (P41145 whole entry): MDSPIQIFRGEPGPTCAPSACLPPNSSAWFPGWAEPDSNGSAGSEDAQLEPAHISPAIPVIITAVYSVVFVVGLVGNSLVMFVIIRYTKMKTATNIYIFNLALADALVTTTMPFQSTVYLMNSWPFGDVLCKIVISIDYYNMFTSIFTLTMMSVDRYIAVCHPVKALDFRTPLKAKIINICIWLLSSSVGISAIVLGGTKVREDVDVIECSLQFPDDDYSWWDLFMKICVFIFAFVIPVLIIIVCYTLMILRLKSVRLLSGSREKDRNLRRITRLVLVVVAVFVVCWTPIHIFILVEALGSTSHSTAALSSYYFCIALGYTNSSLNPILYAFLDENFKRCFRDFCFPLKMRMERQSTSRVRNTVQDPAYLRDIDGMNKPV
Sequence of SUMO-activating enzyme (Q9UBE0 whole entry): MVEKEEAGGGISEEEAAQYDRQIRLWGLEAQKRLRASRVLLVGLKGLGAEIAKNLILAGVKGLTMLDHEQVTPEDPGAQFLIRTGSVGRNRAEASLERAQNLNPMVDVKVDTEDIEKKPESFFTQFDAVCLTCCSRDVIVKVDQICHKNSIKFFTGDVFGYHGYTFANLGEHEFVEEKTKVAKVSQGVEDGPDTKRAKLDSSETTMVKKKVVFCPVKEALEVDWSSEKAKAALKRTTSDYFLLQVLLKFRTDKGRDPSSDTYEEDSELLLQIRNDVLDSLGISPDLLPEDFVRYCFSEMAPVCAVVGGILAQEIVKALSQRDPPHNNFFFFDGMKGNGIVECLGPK
Sequence of SUMO-activating enzyme (Q9UBT2 whole entry): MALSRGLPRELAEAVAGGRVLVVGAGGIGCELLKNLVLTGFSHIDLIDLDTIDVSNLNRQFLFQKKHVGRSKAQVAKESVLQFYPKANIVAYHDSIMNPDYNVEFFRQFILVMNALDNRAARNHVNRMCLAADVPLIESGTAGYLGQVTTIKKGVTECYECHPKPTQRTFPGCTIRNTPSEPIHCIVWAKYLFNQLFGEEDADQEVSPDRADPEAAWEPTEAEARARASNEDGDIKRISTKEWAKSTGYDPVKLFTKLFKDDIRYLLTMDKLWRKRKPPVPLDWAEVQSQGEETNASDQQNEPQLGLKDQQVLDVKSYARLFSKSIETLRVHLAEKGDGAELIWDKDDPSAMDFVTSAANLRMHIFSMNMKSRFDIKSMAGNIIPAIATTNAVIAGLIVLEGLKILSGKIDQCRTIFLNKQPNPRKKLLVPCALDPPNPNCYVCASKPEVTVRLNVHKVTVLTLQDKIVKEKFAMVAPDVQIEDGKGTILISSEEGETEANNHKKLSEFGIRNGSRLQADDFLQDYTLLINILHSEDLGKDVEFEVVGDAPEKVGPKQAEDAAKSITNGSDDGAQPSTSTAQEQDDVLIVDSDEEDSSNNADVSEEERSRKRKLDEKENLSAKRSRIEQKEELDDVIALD
Sequence of DNA dC->dU-editing enzyme APOBEC-3G (Q9HC16 whole entry): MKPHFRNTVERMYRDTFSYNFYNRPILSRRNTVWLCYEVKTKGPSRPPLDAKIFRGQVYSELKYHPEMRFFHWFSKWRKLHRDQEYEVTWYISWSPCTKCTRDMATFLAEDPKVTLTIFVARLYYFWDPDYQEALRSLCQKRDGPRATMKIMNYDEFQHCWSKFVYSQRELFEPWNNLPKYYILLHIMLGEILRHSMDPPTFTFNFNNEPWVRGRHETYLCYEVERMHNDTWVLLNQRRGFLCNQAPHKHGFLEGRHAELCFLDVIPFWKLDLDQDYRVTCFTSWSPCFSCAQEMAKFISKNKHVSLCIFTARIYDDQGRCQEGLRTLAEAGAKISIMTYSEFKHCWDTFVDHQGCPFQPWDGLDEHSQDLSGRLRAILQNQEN
Sequence of Eukaryotic translation initiation factor 4E (P63073 whole entry): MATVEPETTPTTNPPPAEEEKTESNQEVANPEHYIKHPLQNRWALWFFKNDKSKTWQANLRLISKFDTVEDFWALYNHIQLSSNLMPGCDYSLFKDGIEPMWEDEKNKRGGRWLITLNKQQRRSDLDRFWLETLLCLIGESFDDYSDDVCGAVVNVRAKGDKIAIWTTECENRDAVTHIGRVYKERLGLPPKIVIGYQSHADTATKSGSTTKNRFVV

Turning to `COC(=O)/C(=C1/Oc2cc(C)oc(=O)c2S1)C(F)(F)F`, the CC50 is 9.91 µM (active) in assay [1], 10.2 µM (active) in [3] and 7.26 µM (active) in assay [6]. Besides, the AC50 in assay [2] is 43 µM (active); in [4], > 380 µM (inactive); in assay [7], 16.6 µM (active); in [8] it was 4.64 µM (active). Further, the IC50 in assay [5] is 1.64 µM (active). For the same compound, the half-maximal effective concentration (EC50) in [9] was 3.74 µM (active).

As for `CSc1ccc(C(=O)C2CCCN(C(=O)c3ccc4c(c3)no[n+]4[O-])C2)cc1` (stereo not given), the CC50 was 10.8 µM (active) in assay [1], 39.4 µM (active) in assay [3] and 13.7 µM (active) in assay [6]. Besides, in [5], the IC50 was 1.5 µM (active).

With `O=C(Nc1cc(=O)[nH]c2ncnn12)c1ccco1`, the IC50 in [10] is > 50 µM (inactive).

Consider `Cc1ccc(C(=O)NCC(=O)OC(C)C(=O)Nc2ccc(N3CCOCC3)cc2)s1` (stereo not given), for which, in assay [10], the IC50 was > 50 µM (inactive).

Consider `Cc1ccc(-c2cc(C)nc3nc(N)nn23)cc1`, for which, in assay [11], the AC50 was 62.7 µM (active).

As for `COc1cc(OC)c(/C=N/NC(=O)c2ccc(NC(C)=O)cc2)cc1Br`, the IC50 was 50 µM (inactive) in assay [12] and 22.1 µM (active) in assay [13].

As for `O=C1c2oc3ccccc3c(=O)c2C(c2cccc(F)c2)N1CCCO` (stereo not given), the IC50 in assay [10] was > 50 µM (inactive).

In the case of `COc1ccc(Cc2n[nH]c(=S)n2NC(=O)Nc2ccc(C)cc2)cc1`, the IC50 in assay [13] is > 100 µM (inactive).

Consider `O=C(NNC(=O)c1cnccn1)c1ccc(Cl)c(Cl)c1`, for which the CC50 was 14.6 µM (active) in [3] and 12.5 µM (active) in assay [6]. Also, the IC50 in [5] is 6.17 µM (active).

As for `Cc1nc2scc(-c3ccccc3)c2c(=O)n1N=C1C=CC(=O)C=C1`, the EC50 in assay [14] is 2.23 µM (active); in assay [16], 5.96 µM (active); in [19] it was 7.47 µM (active); in assay [20], > 31.5 µM (inactive). Further, the IC50 in [15] was 9.73 µM (active); in assay [17] it was 16.5 µM; in assay [18], 9.24 µM (active).

These data come from ChEMBL document CHEMBL1201862, “PubChem BioAssay data set” (2004).
